Results on one compound are retold here after patent US10533015B1, “Opioid receptor antagonist prodrugs” (Nirsum Laboratories, Inc., priority 2019, dated 2020).

Some results are limits rather than exact numbers.

The conditions of data set [1]: Water; heating temp. 40 °C, obs. temp. 40 °C.
The target in the next data set is T1, KOR (Homo sapiens, UniProt P41145).
T1 construct: expressed in transfected cells
The data set can be described thus: Opioid receptor binding assay, KOR ([3H]Diprenorphine). To be noted: MaxDose 10000 nM. How it is done: (§1) Receptor binding assays were performed to assess the ability of compounds to inhibit binding to radiolabeled ligand.
(§2) The stable cell lines were established and prepared cell membrane obtained using these cell lines.
(§3) 3) Assay Procedure 1) Transfer 1 μl of specified concentration compound to assay plate according to the plate map for nonspecific binding. Transfer 1 μl of DMSO to assay plate according to plate map for total binding. 2) Follow the plate map. Dispense 99 μl of membrane stocks into the plate. 3) Add 100 μl of radio ligand. 4) Seal the plates. Incubate at RT for 1 hour. 5) Soak the Unifilter-96 GF/C filter plates with 50 μl of 0.3% PEI per well for at least 0.5 hour at room temperature. 6) When binding assays are completed, filter the reaction mixture through GF/C plates using Perkin Elmer Filtermate Harvester, and then wash each plate for 4 times with cold wash buffer. 7) Dry the filter plates for 1 hour at 50 degrees. 8) After drying, seal the bottom of the filter plate wells using Perkin Elmer Unifilter-96 backing seal tape. Add 50 μl of Perkin Elmer Microscint 20 cocktail. Seal top of filter plates with Perkin Elmer TopSeal-A sealing film. 9) Count ^3H trapped on filter using Perkin Elmer MicroBeta2 Reader second day. 10) Analyze the data with GraphPad Prism 5. […]

The next data set has as its target T2, MOR (Homo sapiens, UniProt P35372).
T2 construct: expressed in transfected cells
The experiment in a line: Opioid receptor binding assay, MOR ([3H]DAMGO). The settings on record: MaxDose 10000 nM. How it is done: as §1, §2, §3

T1 sequence (P41145 whole entry): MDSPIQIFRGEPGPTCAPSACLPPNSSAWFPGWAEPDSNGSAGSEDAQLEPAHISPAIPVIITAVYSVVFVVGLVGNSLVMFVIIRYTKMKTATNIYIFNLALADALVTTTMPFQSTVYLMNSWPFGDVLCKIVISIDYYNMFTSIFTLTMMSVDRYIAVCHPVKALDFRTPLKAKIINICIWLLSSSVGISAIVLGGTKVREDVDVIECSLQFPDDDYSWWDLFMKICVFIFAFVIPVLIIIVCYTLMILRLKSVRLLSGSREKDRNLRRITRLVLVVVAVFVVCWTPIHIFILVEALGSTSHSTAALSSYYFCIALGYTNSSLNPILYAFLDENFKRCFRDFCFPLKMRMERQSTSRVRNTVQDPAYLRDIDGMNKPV
T2 sequence (P35372 whole entry): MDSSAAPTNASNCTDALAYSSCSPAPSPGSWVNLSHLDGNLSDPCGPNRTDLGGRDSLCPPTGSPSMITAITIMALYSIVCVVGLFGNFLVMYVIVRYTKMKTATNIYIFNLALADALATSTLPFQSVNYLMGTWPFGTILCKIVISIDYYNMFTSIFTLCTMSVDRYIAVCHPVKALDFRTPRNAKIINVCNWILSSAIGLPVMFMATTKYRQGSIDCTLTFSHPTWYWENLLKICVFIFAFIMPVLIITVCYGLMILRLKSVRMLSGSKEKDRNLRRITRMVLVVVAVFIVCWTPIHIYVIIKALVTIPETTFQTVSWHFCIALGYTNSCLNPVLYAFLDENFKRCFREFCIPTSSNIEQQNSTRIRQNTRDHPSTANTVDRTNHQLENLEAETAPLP

With `C=C1CC[C@@]2(O)C3Cc4ccc(OCOC(=O)OCCCCCCCCCCCCCCCC)c5c4[C@@]2(CCN3CC2CC2)[C@H]1O5` [Compound 34, (((4aS,7aS,12bS)-3-(cyclopropylmethyl)-4a-hydroxy-7-methylene-2,3,4,4a,5,6,7,7a-octahydro-1H-4,12-methanobenzofuro[3,2-e]isoquinolin-9-yl)oxy)methyl hexadecyl carbonate], the “Equilibrium solubility (mg/mL) Water” value in data set [1] is recorded as less than 0.001 mg/mL. In addition, the entries for the “% Inh@MaxDose” value on KOR and on MOR were 68.1% and 92.7%, respectively.
